Results reported in paper PMC8748556, “CXCR4 peptide-based fluorescence endoscopy in a mouse model of Barrett’s esophagus” (EJNMMI Research, 2022).
Square brackets hold non-standard residues; d marks the D form. Side chains are listed from the residue outwards. Peptide text beside a SMILES is read from it. * marks the point of attachment. X1 = C[N+]1=C(C=CC=CC=C2N(CCCCCC(=O)*)c3ccc(S(=O)(=O)O)cc3C2(C)C)C(C)(C)c2cc(S(=O)(=O)[O-])ccc21; dTyr(3-I) = N[C@H](Cc1ccc(O)c(I)c1)C(=O)O; 2Nal = N[C@@H](Cc1ccc2ccccc2c1)C(=O)O; dNMeOrn = CN[C@H](CCCN)C(=O)O; 4Abz = Nc1ccc(C(=O)O)cc1; dDap = NC[C@@H](N)C(=O)O

What was measured:
[1] = test system: dysplastic lesions of L2-IL1B mice; assay: Fluorescence molecular endoscopy; type: in vivo; conditions: L2-IL1B mice 12-14 months, 60 nmol i.v., 4 h p.i.; lesion vs normal surrounding esophageal tissue; mean ± SEM, 3 mice, 2-5 lesions per mouse
Protocol: Three L2-IL1B mice (12–14 months old) were used for fluorescence molecular endoscopy before ex vivo imaging. Endoscopy was performed after sacrificing the mice at 4 h p.i. of MK007 using a homemade system previously developed by our group and optimized for small animal imaging. Briefly, the endoscopy system consisted of a flexible fiberscope (Micrendo-Fiberskop, SCHÖLLY FIBER OPTIC GMBH, Denzlingen, Germany) where both white light (provided by a 250-W halogen lamp, KL-2500 LCD, Schott AG, Mainz, Germany) and fluorescence (fiber coupled continuous wave (CW) laser diode emitting at 670 nm, SLD1332V, Thorlabs, Newton, NJ, USA) are coupled, allowing simultaneous color and near-infrared (NIR) fluorescence endoscopy. Videos in color and fluorescence channel were recorded using a custom-made endoscopy software and stored in AVI file format. Two NaCl-injected IL1B mice (17 and 12 months old) were used as negative controls for the validation of the endoscopy system. […] For quantification of Sulfo-Cy5 signal, single frames or frame sequences showing dysplastic lesions were used and the fluorescence signal from the target lesion and the background were quantified with ImageJ by handmade ROIs. […] The TBR was then calculated by dividing the mean fluorescence intensity from the lesion by the one from the background region.

[2] = type: physicochemical; conditions: pH 7.4
Protocol: Given promising data obtained with MK007 in our preclinical mouse model, we performed preliminary in vitro studies on human cell lines. Competition binding studies (IC50) were performed using Jurkat cells (4 × 10^5 cells/sample) and [^125I]FC131 as radioligand. […] To determine the log P of MK007, the corresponding non-iodinated precursor was radioiodinated using the Iodogen method, and the octanol/PBS partition coefficient of [^125I]MK007 was determined using a modified shake-flask-method.

[3] = test system: dysplastic lesions at the squamocolumnar junction of L2-IL1B mice; type: in vivo, mouse
Protocol: Five 12-to-16-month-old IL1B mice were intravenously injected into the tail vein with 60 nmol of MK007 diluted in 0.9% NaCl (tot. vol. 150 µL; 400 nmol/mL) and sacrificed 4 h post injection (p.i.) by isoflurane overdosage. One non-injected 12-month-old IL1B mouse served as negative control. The whole stomach and esophagus were then excised and imaged using a homemade ex vivo wide-field fluorescence imaging system. Briefly, the fluorescence images were acquired at different time exposure (0.2, 0.5, 1 and 2 s), using a 670 nm diode laser (B&W tek, Newark, DE, USA) and appropriate bandpass filter (780/10). A back illuminated EM-CCD camera (iXon DU888, Andor, Belfast, Northern Ireland, UK) was then used to capture the signal. The target-to-background ratio (TBR) of the stomach was performed by dividing the fluorescence signal in the squamocolumnar junction (SCJ) area (target lesion) with the adjacent normal gastric glandular tissue (background area) using ImageJ/Fiji software. In the organs, the signal quantification was performed by calculating the corrected total cell fluorescence/CTCF = integrated density – [(area * AVERAGE (mean background)]. For CTCF, three regions of interest (ROIs) without any tissue were used as background.

In the case of C[C@@H](NC(=O)[C@@H](CCCNC(=N)N)NC(=O)[C@@H](CN)NC(=O)CCCCCN1C(=CC=CC=CC2=[N+](C)c3ccc(S(=O)(=O)[O-])cc3C2(C)C)C(C)(C)c2cc(S(=O)(=O)O)ccc21)C(=O)Nc1ccc(C(=O)NCCC[C@@H]2C(=O)N[C@@H](CCCNC(=N)N)C(=O)N[C@@H](Cc3ccc4ccccc4c3)C(=O)NCC(=O)N[C@H](Cc3ccc(O)c(I)c3)C(=O)N2C)cc1 [MK007] (cyclo([dTyr(3-I)][dNMeOrn]([4Abz-dA-dR-dDap-X1])R[2Nal]G)), the “Target-to-background ratio (TBR), fluorescence endoscopy” value [1] is reported as 2.13 ± 0.17, the “log P” value [2] is reported as “− 1.83 ± 0.02” and the “Target-to-background ratio (TBR), ex vivo wide-field imaging” value ([3]; L2-IL1B mice 12-16 months, 60 nmol i.v., 4 h p.i., SCJ vs adjacent normal gastric glandular tissue, mean ± SEM, n = 5) is reported as 2.45 ± 0.24. The “mean target-to-background ratio in dysplastic lesions (ex vivo imaging and endoscopy)” value ([3]; L2-IL1B mice, 4 h after injection, abstract statement covering ex vivo imaging and endoscopy) was > 2.
